Among the test systems are 786-0; CAKI-1; CCRF-CEM; COLO 205; DU-145; HCC 2998; HCT-15; Hs-578T; KM12; MDA-MB-231; MDA-MB-435; MOLT-4; NCI/ADR-RES; OVCAR-5; SF-268; SNB-19; U-251; UACC-62; UO-31; EKVX.
Holding throughout (test): NCI-60 cell line screen, 48 h

Data on eleven compounds can be found in ChEMBL document CHEMBL1201862, “PubChem BioAssay data set” (2004).

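How tested: cells in 96-well plates exposed to compound for 48 hours at five concentrations. The concentration for 50% growth inhibition is given as GI50.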 Active and inactive are the calls of the source. No stated cut-off is given here; in the data, active = GI50 up to about 1.1 µM and inactive = higher.

With `CN(C)CCNC(=O)Cn1cc([N+](=O)[O-])c(=O)c2ccccc21`, the GI50 in the experiment on 786-0, in the experiment on CAKI-1, with CCRF-CEM, with COLO 205, with DU-145 and in the experiment with HCC 2998 was > 100 µM (inactive) each time. Besides, the GI50 in the experiment on HCT-15 was > 100 µM; in the experiment on Hs-578T, > 100 µM (inactive); in the experiment on KM12 it was > 100 µM (inactive); in the experiment on MDA-MB-231, > 100 µM (inactive); in the experiment with MDA-MB-435, > 100 µM (inactive); with MOLT-4 it was > 100 µM (inactive). The GI50 with NCI/ADR-RES, with OVCAR-5, in the experiment with SF-268, in the experiment with SNB-19, in the experiment with U-251 and with UACC-62 was > 100 µM (inactive) throughout. Also, the GI50 with UO-31 was > 100 µM (inactive).

As to `O=C(CSCC(=O)N/N=C/c1cccs1)N/N=C/c1cccs1`, the GI50 was 47.6 µM (inactive) in the experiment with 786-0; 46.6 µM (inactive) with CAKI-1; 51.6 µM (inactive) in the experiment on CCRF-CEM; 54.3 µM (inactive) in the experiment on DU-145; 61.5 µM (inactive) in the experiment with EKVX; > 100 µM (inactive) with HCC 2998. In addition, the GI50 with HCT-15 was > 100 µM; with Hs-578T, 61.1 µM (inactive); in the experiment with KM12, > 100 µM (inactive); with MDA-MB-231, 75.9 µM (inactive); in the experiment on MDA-MB-435, > 100 µM (inactive); in the experiment with MOLT-4 it was 64.7 µM (inactive). In addition, the GI50 with NCI/ADR-RES is 40 µM (inactive); in the experiment on OVCAR-5 it was > 100 µM (inactive); with SF-268, 72.9 µM (inactive); in the experiment with SNB-19 it was 56.1 µM (inactive); with U-251, > 100 µM (inactive); in the experiment on UACC-62 it was > 100 µM (inactive). Moreover, the GI50 with UO-31 was 48.3 µM (inactive).

With `O=Cc1ccc(-c2ccc(-c3ccc(CO)s3)o2)s1`, the GI50 with 786-0 was 2.47 µM (inactive); in the experiment with CAKI-1, 0.186 µM (active); in the experiment on CCRF-CEM it was 1.58 µM (inactive); in the experiment on COLO 205, 12.9 µM (inactive); in the experiment with DU-145 it was 11.5 µM (inactive); in the experiment on EKVX, 23.5 µM (inactive). In addition, the GI50 in the experiment on HCC 2998 is 3.22 µM (inactive); with HCT-15, 24.4 µM; with Hs-578T, 16 µM (inactive); in the experiment on KM12, 42.6 µM (inactive); with MDA-MB-231, 22 µM (inactive); with MDA-MB-435, 8.32 µM (inactive). Further, the GI50 with MOLT-4 is 2.92 µM (inactive); in the experiment on NCI/ADR-RES it was 10.6 µM (inactive); in the experiment with SF-268 it was 18.6 µM (inactive); in the experiment on SNB-19 it was 32 µM (inactive); with U-251, 1.91 µM (inactive); in the experiment with UACC-62, 0.151 µM (active). Also, the GI50 in the experiment with UO-31 is 15.6 µM (inactive).

Regarding `CC(=N\N)/C(C)=N/N=C(C)/C(C)=N/N`, the GI50 with 786-0, in the experiment on CAKI-1, in the experiment with CCRF-CEM, in the experiment on COLO 205, with DU-145 and in the experiment on EKVX was > 100 µM (inactive) each time. Moreover, the GI50 was > 100 µM (inactive) in the experiment on HCC 2998; > 100 µM in the experiment on HCT-15; > 100 µM (inactive) with Hs-578T; > 100 µM (inactive) with KM12; > 100 µM (inactive) in the experiment with MDA-MB-231; > 100 µM (inactive) with MDA-MB-435. The GI50 in the experiment with NCI/ADR-RES, in the experiment with OVCAR-5, in the experiment with SF-268, with SNB-19, in the experiment on U-251 and with UO-31 was > 100 µM (inactive) throughout.

In the case of `Cc1c2ccccc2cc2nc3ccccc3n12`, the GI50 with 786-0, in the experiment with CAKI-1, in the experiment with CCRF-CEM, in the experiment on COLO 205, in the experiment with DU-145 and in the experiment with EKVX was > 10 µM (inactive) each time. The GI50 in the experiment on HCC 2998 was > 10 µM (inactive); in the experiment with HCT-15, > 10 µM; in the experiment with Hs-578T, > 10 µM (inactive); with KM12, > 10 µM (inactive); in the experiment on MDA-MB-231 it was > 10 µM (inactive); in the experiment with MDA-MB-435, > 10 µM (inactive). Further, the GI50 in the experiment on MOLT-4, in the experiment on NCI/ADR-RES, in the experiment on OVCAR-5, in the experiment on SF-268, in the experiment on SNB-19 and in the experiment on U-251 was > 10 µM (inactive) in each case. Moreover, in the experiment on UACC-62, the GI50 is > 10 µM (inactive).

As for `COc1cc(/C=N/n2c(-c3ccccc3)n[nH]c2=O)cc(OC)c1OC`, the GI50 is 3.5 µM (inactive) with 786-0; 1.1 µM (active) in the experiment on CAKI-1; 1.76 µM (inactive) with CCRF-CEM; 5.77 µM (inactive) in the experiment with DU-145; 11.4 µM (inactive) in the experiment on EKVX; > 100 µM (inactive) in the experiment with HCC 2998. For the same compound, the GI50 in the experiment on HCT-15 was 0.708 µM; in the experiment with Hs-578T, 3.56 µM (inactive); in the experiment with KM12, 0.425 µM (active); in the experiment on MDA-MB-231 it was 19.2 µM (inactive); with MDA-MB-435, 0.218 µM (active); with MOLT-4, 0.733 µM (active). Besides, the GI50 in the experiment on NCI/ADR-RES is 1.44 µM (inactive); with OVCAR-5 it was 22.4 µM (inactive); in the experiment with SF-268, 3.51 µM (inactive); with SNB-19, 6.37 µM (inactive); with U-251, 3.93 µM (inactive); in the experiment with UACC-62, 2.34 µM (inactive). Also, the GI50 with UO-31 is 5.71 µM (inactive).

For the compound `O=C(O)c1ccc(S(=O)(=O)c2ccccc2[N+](=O)[O-])cc1`, the GI50 in the experiment with 786-0, in the experiment on CAKI-1, in the experiment on CCRF-CEM, in the experiment with COLO 205, with DU-145 and with EKVX was > 10 µM (inactive) throughout. The GI50 in the experiment on HCC 2998 is > 10 µM (inactive); in the experiment with HCT-15 it was > 10 µM; in the experiment with Hs-578T, > 10 µM (inactive); in the experiment on KM12, > 10 µM (inactive); in the experiment with MDA-MB-231, > 10 µM (inactive); in the experiment with MDA-MB-435, > 10 µM (inactive). Moreover, the GI50 in the experiment with MOLT-4, with NCI/ADR-RES, in the experiment on OVCAR-5, in the experiment with SF-268, in the experiment on SNB-19 and in the experiment on U-251 was > 10 µM (inactive) in each case. Besides, the GI50 in the experiment on UACC-62 was > 10 µM (inactive).

For `COc1ccc2c(c1)CCC(CN1CCN(CCOC(c3ccc(F)cc3)c3ccc(F)cc3)CC1)=C2`, the GI50 with 786-0 was 11.9 µM (inactive); in the experiment on CAKI-1, 18.9 µM (inactive); in the experiment on CCRF-CEM, 14.1 µM (inactive); in the experiment on COLO 205, 2.14 µM (inactive); with DU-145, 19 µM (inactive); in the experiment on EKVX, 6.07 µM (inactive). The GI50 was 4.89 µM (inactive) with HCC 2998; 3.53 µM with HCT-15; 19.3 µM (inactive) in the experiment with Hs-578T; 15.1 µM (inactive) with KM12; 14.1 µM (inactive) with MDA-MB-231; 16.8 µM (inactive) with MDA-MB-435. Further, the GI50 is 10 µM (inactive) in the experiment on MOLT-4; 11.8 µM (inactive) in the experiment on NCI/ADR-RES; 23.1 µM (inactive) with OVCAR-5; 31.6 µM (inactive) in the experiment on SF-268; 42.5 µM (inactive) in the experiment on SNB-19; 14.8 µM (inactive) in the experiment with U-251. Moreover, in the experiment with UACC-62, the GI50 is 16.1 µM (inactive).

In the case of `C#CCSC(C=C=C)P(=O)(OC(C)C)OC(C)C` (configuration not stated), the GI50 with 786-0 is 46.2 µM (inactive); with CAKI-1 it was > 100 µM (inactive); in the experiment with COLO 205, 58.5 µM (inactive); with DU-145 it was > 100 µM (inactive); in the experiment with EKVX, > 100 µM (inactive); in the experiment with HCC 2998 it was 28.4 µM (inactive). The GI50 in the experiment on HCT-15 was 30.5 µM; in the experiment on Hs-578T it was 12.9 µM (inactive); with KM12, > 100 µM (inactive); with MDA-MB-231 it was > 100 µM (inactive); in the experiment on MDA-MB-435, > 100 µM (inactive); in the experiment on MOLT-4 it was 21.5 µM (inactive). In addition, the GI50 is > 100 µM (inactive) in the experiment with NCI/ADR-RES; > 100 µM (inactive) in the experiment on OVCAR-5; 90.8 µM (inactive) with SF-268; > 100 µM (inactive) with SNB-19; > 100 µM (inactive) in the experiment on U-251; > 100 µM (inactive) in the experiment with UACC-62. In the experiment on UO-31, the GI50 is > 100 µM (inactive).

Regarding `CC(=O)NC1C(OCc2ccccc2)OC(CO)C(O)C1OC(C)C(=O)NC(C)C(=O)N[C@@H](CCC(=O)OCCCNC1c2ccccc2Nc2cccc([N+](=O)[O-])c21)C(N)=O` (some centres not stated), the GI50 is < 0.01 µM (active) with 786-0; < 0.01 µM (active) with CAKI-1; < 0.01 µM (active) with COLO 205; 0.0314 µM (active) in the experiment on DU-145; 0.0135 µM (active) in the experiment on EKVX; < 0.01 µM (active) with HCC 2998. Moreover, the GI50 with HCT-15 was 0.0028 µM; with Hs-578T it was 0.0216 µM (active); with KM12, < 0.01 µM (active); with MDA-MB-231, 0.0282 µM (active); in the experiment on MDA-MB-435, 0.0157 µM (active); in the experiment on MOLT-4 it was 0.0102 µM (active). In addition, the GI50 is 0.0145 µM (active) in the experiment with NCI/ADR-RES; 0.0223 µM (active) in the experiment with OVCAR-5; < 0.01 µM (active) with SF-268; < 0.0124 µM (active) with SNB-19; < 0.01 µM (active) in the experiment with U-251; < 0.01 µM (active) in the experiment with UACC-62. In addition, in the experiment on UO-31, the GI50 was < 0.01 µM (active).

Consider `O=c1c(O)c(-c2ccc(O)cc2O)oc2cc(O)cc(O)c12` [MORIN], for which the GI50 in the experiment on 786-0 was > 100 µM (inactive); in the experiment with CAKI-1, > 100 µM (inactive); with CCRF-CEM it was > 100 µM (inactive); in the experiment with COLO 205, > 100 µM (inactive); with DU-145, > 100 µM (inactive); with EKVX, 30.3 µM (inactive). In addition, the GI50 in the experiment on HCC 2998 was > 100 µM (inactive); in the experiment on HCT-15, > 100 µM; in the experiment on Hs-578T, > 100 µM (inactive); in the experiment with KM12, > 100 µM (inactive); in the experiment on MDA-MB-231, > 100 µM (inactive); in the experiment with MDA-MB-435, > 100 µM (inactive). Moreover, the GI50 in the experiment on NCI/ADR-RES, in the experiment with OVCAR-5, in the experiment with SF-268, in the experiment on SNB-19, in the experiment with U-251 and in the experiment with UO-31 was > 100 µM (inactive) each time.
